{
  "source": "patent US9642861B2",
  "about": "“Methods of treating oral mucositis” (priority 2006, dated 2017)",
  "key": {"[1]": {"type": "in vivo", "details": "for Survival (animal recorded dead in weight table): first study; for survival status noted in Animal Weights table: second study, group 3", "source_text": "All animals were weighed daily and their survival recorded, in order to assess possible differences in animal weight among treatment groups as an indication for mucositis severity and/or possible toxicity resulting from the treatments.\n(§1) All forty-eight (48) male Syrian Golden Hamsters were given an acute radiation dose of 40 Gy directed to their left buccal cheek pouch. This was accomplished by anesthetizing the animals and everting the left buccal pouch, while protecting the rest of the animal with a lead shield. Test materials were given either topically or by ip injection twice daily as detailed in Table 1. Mucositis was evaluated clinically starting on day 6, and continuing on alternate days until day 28. The study timeline is depicted in FIG. 1. Dose levels were determined based on the results of a previous acute toxicity study (data not shown), and the levels shown in Table 1.\nMale LVG Syrian Golden Hamsters (Charles River Laboratories), aged 5 to 6 weeks, with average body weight of 84.1 g at study commencement, were used. Animals were individually numbered using an ear punch and housed in small groups of approximately 8 animals per cage. Animals were acclimatized prior to study commencement. During this period of 2 days, the animals were observed daily in order to reject animals that presented in poor condition.\nThe significance of these differences was evaluated by calculating the mean area under the curve for the percentage weight gain for each animal and comparing the groups using a OneWay ANOVA test. There was a significant difference between the control group and group 3 treated by ip injection with M40403 twice daily (30 mg/kg) on days −1 to 15 (P<0.001). There was also a significant difference between the control group and the group treated by ip injection with M40403 twice daily at 30 mg/kg/dose from day −1 to day 3 (P=0.018). No other significant differences were seen. […] Many of the groups with a significant reduction in weight gain are the same groups in which animal deaths were observed."}, "[2]": {"tested_on": "oral mucositis induced in hamsters by acute radiation (40 Gy to left buccal cheek pouch)", "assay": "ACT-02 (Example 1): acute radiation model of oral mucositis in hamsters, mucositis scoring", "type": "in vivo, Syrian Golden Hamsters", "set-up": "peak mucositis score (mean daily score): scale not given here", "source_text": "The objective of this study is to evaluate the effect of M40403, administered by either ip or topical routes, with 2 different schedules, on the frequency, severity and duration of oral mucositis induced in hamsters by acute radiation.\nThe acute radiation model in hamsters, developed by the Principal Investigator, has proven to be an accurate, efficient and cost-effective technique to provide a preliminary evaluation of anti-mucositis compounds (9). The course of mucositis in this model is well defined and results in peak scores approximately 14-16 Days following radiation. The acute model has little systemic toxicity, resulting in few hamster deaths, thus permitting the use of smaller groups (N=7-8) for initial efficacy studies. It has also been used to study specific mechanistic elements in the pathogenesis of mucositis. Molecules that show efficacy in the acute radiation model may be further evaluated in the more complex models of fractionated radiation, chemotherapy, or concomitant therapy.\nIn this study, an acute radiation dose of 40 Gy on day 0 was administered locally to the cheek pouch. Clinically significant mucositis was observed on days 12 through 28.\nForty-eight male Syrian Golden Hamsters were divided randomly into 6 groups of 8 animals and given an acute radiation dose of 40 Gy directed to their left buccal cheek pouch. This was accomplished by anesthetizing the animals and everting the left buccal pouch, while protecting the rest of the animal with a lead shield. Test materials were given topically or by ip injection twice daily as detailed in Table 1. Mucositis was evaluated clinically starting on Day 6, and continued on alternate days until day 28.\nThe grade of mucositis was scored, beginning on day 6, and for every second day thereafter, through and including day 28 (for scoring scheme, see Table 2 and FIG. 2). The effect on mucositis of each drug treatment compared to ip vehicle-treated controls was assessed according to the following parameters:\nThe difference in the number of days hamsters in each group have ulcerative (score≧3) mucositis.\nOn each evaluation day, the number of animals with a blinded mucositis score of ≧3 in each drug treatment group was compared to the vehicle-treated control group. Differences were compared on a cumulative basis and statistical significance was determined by chi-square analysis. Efficacy, in this analysis, is defined as a significant reduction in the number of days that a group of animals had ulcerations (scores ≧3) when compared to the control group.\nFor each evaluation day the scores of the control group were compared to those of the treated groups using non-parametric rank sum analysis. Treatment success was considered as a statistically significant lowering of scores in the treated group on 2 or more days from day 6 to day 28.\nas §1\nMucositis was induced using a standardized acute radiation protocol. A single dose of radiation (40 Gy/dose) was administered to all animals on day 0. Radiation was generated with a 250 kilovolt potential (15-ma) source at a focal distance of 50 cm, hardened with a 0.35 mm Cu filtration system. Irradiation targeted the left buccal pouch mucosa at a rate of 3.2 Gy/minute. Prior to irradiation, animals were anesthetized with an intra-peritoneal injection of Ketamine (160 mg/kg) and Xylazine (8 mg/kg). […]"}, "[3]": {"tested_on": "animal models of inflammation", "details": "in vivo; cited from earlier work"}, "[4]": {"details": "group 2: ip 3 mg/kg bid day −1 to 15"}, "[5]": {"details": "group 3: ip 30 mg/kg bid day −1 to 15"}, "[6]": {"details": "group 4: top 3 mg/ml bid, 0.2 ml per dose, day −1 to 15"}, "[7]": {"details": "group 5: top 30 mg/ml bid, 0.2 ml per dose, day −1 to 15"}, "[8]": {"details": "group 6: ip 30 mg/kg bid day −1 to 3"}},
  "note": "“Also recorded” adds a separate entry of the source. Read-outs that look alike come from different tables or passages of the source.",
  "data": [
    {"smiles": "[Cl-].[Cl-].[Mn+2].c1cc2nc(c1)CN[C@@H]1CCCC[C@H]1NCCN[C@@H]1CCCC[C@H]1NC2", "note": "[M40403]", "values": [
      {"measurement": "Survival (animal recorded dead in weight table)", "setting": "[1]; Group 2, day 0", "value": "dead"},
      {"measurement": "Survival (animal recorded dead in weight table)", "setting": "[1]; Group 5, day 0", "value": "dead"},
      {"measurement": "Survival (animal recorded dead in weight table)", "setting": "[1]; Group 6, day 0", "value": "dead"},
      {"measurement": "deaths during the study", "setting": "[1]; group 3: ip 30 mg/kg bid day −1 to 15, hamster 19, after extended failure to gain weight", "value": "died on day 12"},
      {"measurement": "deaths during the study", "setting": "[1]; group 6: ip 30 mg/kg bid day −1 to 3, appeared to be anesthesia overdose", "value": "two"},
      {"measurement": "average weight gain, % of starting weight by day 28", "setting": "[1]; hamster, in vivo, ip, 3 mg/kg", "value": 66.0, "unit": "%"},
      {"measurement": "weight gain during dosing", "setting": "[1]; hamster, in vivo, ip, 30 mg/kg", "value": "general lack of weight gain during dosing"},
      {"measurement": "toxicity based on mortality and body weight", "setting": "[1]; ip injections twice daily at 30 mg/kg", "value": "appear to show some toxicity"},
      {"measurement": "survival status noted in Animal Weights table", "setting": "[1]; animal 19, day 12", "value": "dead"},
      {"measurement": "survival status noted in Animal Weights table", "setting": "[1]; animal 23, day 0", "value": "dead"},
      {"measurement": "Chi Sq v control, days with mucositis score >=3", "setting": "[2]; [4]", "value": 0.3440},
      {"measurement": "Days <3 (animal days with a mucositis score below 3)", "setting": "[2]; [4]", "value": 126},
      {"measurement": "Days >=3 (animal days with a mucositis score of 3 or more)", "setting": "[2]; [4]", "value": 66},
      {"measurement": "day of peak mucositis score", "setting": "[2]; [4]", "value": 18, "unit": "days"},
      {"measurement": "peak mucositis score (mean daily score)", "setting": "[2]; [4]", "value": 2.8},
      {"measurement": "progression of mucositis severity compared with control group", "setting": "[2]; [4]", "value": "very similar to that observed in the control group"},
      {"measurement": "Chi Sq v control, days with mucositis score >=3", "setting": "[2]; [5]", "value": 0.9890},
      {"measurement": "Days <3 (animal days with a mucositis score below 3)", "setting": "[2]; [5]", "value": 96},
      {"measurement": "Days >=3 (animal days with a mucositis score of 3 or more)", "setting": "[2]; [5]", "value": 56},
      {"measurement": "day of peak mucositis score", "setting": "[2]; [5]", "value": 18, "unit": "days"},
      {"measurement": "peak mucositis score (mean daily score)", "setting": "[2]; [5]", "value": 3.0},
      {"measurement": "progression of mucositis severity compared with control group", "setting": "[2]; [5]", "value": "indistinguishable from that observed in groups 1 and 2"},
      {"measurement": "progression of mucositis severity compared with control group", "setting": "[2]; group 4: top 3 mg/ml bid day −1 to 15", "value": "closely paralleled those in the control group"},
      {"measurement": "Chi Sq v control, days with mucositis score >=3", "setting": "[2]; [6]", "value": 1.6760},
      {"measurement": "Days <3 (animal days with a mucositis score below 3)", "setting": "[2]; [6]", "value": 119},
      {"measurement": "Days >=3 (animal days with a mucositis score of 3 or more)", "setting": "[2]; [6]", "value": 73},
      {"measurement": "progression of mucositis severity compared with control group", "setting": "[2]; group 5: top 30 mg/ml bid day −1 to 15", "value": "showed a reduction of mucositis severity on day 10; also recorded: only slightly less than those in the control group"},
      {"measurement": "Chi Sq v control, days with mucositis score >=3", "setting": "[2]; [7]", "value": 0.136},
      {"measurement": "Days <3 (animal days with a mucositis score below 3)", "setting": "[2]; [7]", "value": 128},
      {"measurement": "Days >=3 (animal days with a mucositis score of 3 or more)", "setting": "[2]; [7]", "value": 64},
      {"measurement": "Chi Sq v control, days with mucositis score >=3", "setting": "[2]; [8]", "value": 7.83},
      {"measurement": "Days <3 (animal days with a mucositis score below 3)", "setting": "[2]; [8]", "value": 120},
      {"measurement": "Days >=3 (animal days with a mucositis score of 3 or more)", "setting": "[2]; [8]", "value": 24},
      {"measurement": "day of peak mucositis score", "setting": "[2]; [8]", "value": 14, "unit": "days"},
      {"measurement": "peak mucositis score (mean daily score)", "setting": "[2]; [8]", "value": 3.0},
      {"measurement": "progression of mucositis severity compared with control group", "setting": "[2]; group 6: ip 30 mg/kg bid day −1 to 3, from day 16 to day 28", "value": "decreased much more rapidly than the control group"},
      {"measurement": "effect of topical dosing on weight and mucositis severity", "setting": "[2]; topical dosing, 3 or 30 mg/ml bid day −1 to 15, formulation used here", "value": "did not appear to have any effect on either weight or mucositis severity"},
      {"measurement": "efficacy in animal models of inflammation", "setting": "[3]", "value": "effective"}
    ]}
  ]
}
